Measurements as given in patent US6589941B1 (priority 1995, dated 2003).

What was measured:
[1] = tested on: Saccharomyces cerevisiae MP1; test: Recombination / mutation experiments with yeast; assay type: cell-based; settings: for anti-recombinogenic effects in Saccharomyces cerevisiae MP1: FIGS. 11 and 12
[2] = tested on: SV40-DNA amplification in SV40 transformed embryonic CO631 hamster cells; test: SV40-DNA gene amplification system in SV40-transformed hamster cells; assay type: cell-based, Chinese Hamster; settings: for effect on SV40 gene amplification: model substance given alone, FIGS. 1 to 3
Text: To investigate the amplification phenomena, a hamster cell strain is used which contains a virus (simian virus 40) integrated in the genome. It is known for this cell strain that an addition of genotoxic substances, but also various “non-genotoxic” carcinogens and tumor inducers, leads to amplification of SV40-DNA in the hamster genome. The method is based on the fact that marked SV40-DNA with hamster cell-DNA containing SV40-DNA in an amplified number, serving as a probe, is hybridized. The quantity of bound probe gives an insight into the degree of amplification of the integrated virus-DNA.
In order to determine the degree of amplification, the albumin-gene-DNA is measured simultaneously with the SV40-DNA. The albumin-gene, as opposed to SV40-DNA, is not amplified in the cell. Accordingly the value of the relative SV40-DNA content results from the quotient of the signal of the DNA probe hybridized with SV40-DNA to the signal of the DNA probe hybridized with albumin gene from the same SV40 transformed embryonic CO631 hamster cells.
The effect of the above named model substances alone or in combination with a carcinogen is tested in the gene amplification system.

[3] = tested on: human tumor cell strain K562-WT; settings: FIG. 8
[4] = tested on: tumor cell strain F46-WT of the mouse
Description: The formation of resistance is based on the amplification of the MDR gene. This is indicated with the aid of the Northern Blotting Technique, a method for indicating RNA molecules, i.e., the transcription of a gene, using the MDR gene as a probe (FIG. 10).
The tumor cell strain F4-6-WT of the mouse (WT=wild type=sensitive to cytostatic treatment=no amplification of the MDR gene) is treated over several weeks with staged increases in concentration of adriamycin. […] The formation of resistance is based on the amplification of the MDR gene. This is indicated with the aid of the Northern Technique, a method for indicating RNA molecules, i.e., the transcription of a gene, using the MDR gene as a probe (FIG. 15). […] The levels of β-actin MRNA are likewise analyzed as comparison. β-actin is used as an internal control for the RNA quantity.
In parallel experiments, adriamycin is administered with 1 μg/ml of a respective 5′ substituted nucleoside.

MDR gene in F46-WT cells = test: Northern Blot analysis of RNA with the MDR gene as probe; assay type: cell-based, mouse; settings: BVDU+adriamycin treatment, FIG. 10
Text: Expression of the MDR genes in the tumor cell strain F4-6WT of the mouse.

Nc1nc(=O)n([C@H]2C[C@H](O)[C@@H](CO)O2)cc1I [5-iodo-2′-deoxycytidine]
anti-recombinogenic effects in Saccharomyces cerevisiae MP1 [1]: anti-recombinogenic effects

O=c1[nH]c(=O)n([C@@H]2O[C@H](CO)[C@@H](O)[C@@H]2O)cc1/C=C/Br [(E)-5-(2-bromovinyl)-1-β-D-arabinofuranosyl-uracil]
anti-recombinogenic effects in Saccharomyces cerevisiae MP1 [1]: anti-recombinogenic effects

O=c1ccc2ccccc2o1 [coumarin]
effect on SV40 gene amplification [2]: increase the SV40 gene amplification

O=c1[nH]c(=O)n([C@H]2C[C@H](O)[C@@H](CO)S2)cc1/C=C/Br [(E)-5(2-bromovinyl-2′-deoxy-4′-thiouridine]
anti-recombinogenic effects in Saccharomyces cerevisiae MP1 [1]: anti-recombinogenic effects

COc1cccc2c1C(=O)c1c(O)c3c(c(O)c1C2=O)C[C@@](O)(C(=O)CO)C[C@@H]3O[C@H]1C[C@H](N)[C@H](O)[C@H](C)O1 [adriamycin]
sensitivity of cells after long term treatment with staged increase in concentration ([3]; 20 ng/ml adriamycin, K562-WT): totally insensitive
toxic effect on non-resistant cells ([3]; 20 ng/ml adriamycin, treatment time 4 days, K562-WT): severely toxic effect
sensitivity of cells after long term treatment with staged increase in concentration ([4]; 20 ng/ml adriamycin, F46-WT, FIGS. 9, 13, 14): totally insensitive

CC(=N)S [thioacetamide]
effect on SV40 gene amplification [2]: increase the SV40 gene amplification

CCCCCCCCCCCCCC(=O)O[C@@H]1[C@@H](C)[C@@]2(O)[C@@H](C=C(CO)C[C@]3(O)C(=O)C(C)=C[C@@H]23)[C@H]2C(C)(C)[C@]12OC(C)=O [TPA, 12-0-tetradecanoyl-phorbol-13-acetate]
effect on SV40 gene amplification [2]: increase the SV40 gene amplification

C1CN1c1nc(N2CC2)nc(N2CC2)n1 [TEM, Triethylenmelamin]
effect on SV40 gene amplification [2]: increase the SV40 gene amplification

C[C@]12CC[C@H]3[C@@H](CCC4=CC(=O)CC[C@@]43C)[C@@H]1CC[C@@H]2O [testosterone]
effect on the amplifying effect of methotrexate (MTX) ([2]; with S9-mix, FIG. 3): reduces the amplifying effect of methotrexate (MTX)
effect on the amplifying effect of amino-6-mercaptopurine (AMP) ([2]; without S9-mix, FIG. 3): increases the amplifying effect of amino-6-mercaptopurine (AMP)

CC(C)=O [acetone]
effect on SV40 gene amplification [2]: no effect

CC(N)=O [acetamide]
effect on SV40 gene amplification [2]: increase the SV40 gene amplification

CN(C)C=O [dimethylfornamide, dimethylformamide]
effect on SV40 gene amplification [2]: no effect

C=C(C)[C@@]12O[C@@]3(c4ccccc4)O[C@@H]1[C@@H]1[C@@H]4O[C@]4(CO)[C@@H](O)[C@]4(O)C(=O)C(C)=C[C@H]4[C@@]1(O3)[C@H](C)[C@H]2OC(=O)/C=C/C=C/c1ccccc1 [mezerein]
effect on SV40 gene amplification [2]: increase the SV40 gene amplification

O=c1[nH]c(=O)n([C@H]2C[C@H](O)[C@@H](CO)O2)cc1I [5-iodo-2′-deoxyuridine]
anti-recombinogenic effects in Saccharomyces cerevisiae MP1 [1]: anti-recombinogenic effects

O=c1[nH]c(=O)n([C@H]2C[C@H](O)[C@@H](CO)O2)cc1/C=C/Br [BVDU, (E)-5-(2-bromovinyl-)2′-deoxyuridine]
amplification of the MDR gene compared with adriamycin treatment alone (MDR gene in F46-WT cells): considerably weaker amplification of the MDR gene
effect on spontaneous degree of amplification ([2]; BVDU alone, repeat experiment, FIG. 6): slightly to lessen the spontaneous degree of amplification
effect on AMP-induced gene amplification ([2]; with S9-mix, lower dose range than without S9-mix, FIG. 7): lowering of AMP-induced gene amplification
concentration at which inhibition of AMP-induced gene amplification starts ([2]; without S9-mix, FIG. 5): about 0.05 μg/ml
concentration leading to total inhibition of the AMP-induced gene amplification ([2]; without S9-mix, dose dependent, FIG. 5): 5 µg/mL
formation of resistance to adriamycin ([3]; 0.5 or 1 μg/ml BVDU given together with adriamycin, K562-WT, 6 to 8 weeks): prevents the formation of resistance to adriamycin
concentration from which BVDU acts in a toxic manner ([3]; human tumor cells): about 10 μg/ml
anti-recombinogenic effects in Saccharomyces cerevisiae MP1 [1]: anti-recombinogenic effects
effect on mutation in yeast ([1]; with and without S9-mix, FIG. 4): co-mutagenic
effect on recombination in yeast ([1]; with and without liver microsomes (S9-mix), more visible and at lower concentration with S9-mix, FIG. 4): anti-recombinogenic
formation of resistance to adriamycin ([4]; 0.5 or 1 μg/ml BVDU given together with adriamycin, F46-WT, 6 to 8 weeks, FIG. 9): prevents the formation of resistance to adriamycin
concentration from which BVDU acts in a toxic manner ([4]; mouse cells, FIG. 9): about 8 μg/ml
